We go through eight compounds from patent US20010055627A1, “Compositions And Methods For Regulating Lipoproteins And Hypercholesterolemia With Limonoids, Flavonoids And Tocotrienols” (priority 1997, published 2001).

Molecules are shown by their SMILES. ≈ marks a conversion by molar mass, not a printed value. Where two headings read alike, the source gives them in different places.

Series [1] in a line: Growth performance of hamsters fed experimental diets. The series is classed as in vivo, Golden Syrian hamsters. Conditions: supplement level as in label, means ± SD; for Growth Rate: diet for 35 days; for Food Consumption: last two weeks of treatment. The method, then: (§1) Fifty four male Golden Syrian hamsters weighing 100-120 g at arrival were housed individually in a constant temperature 21-24° C. and with 12 h light:dark cycle. The animals were fed ground chow diet for 1 week. Thereafter, they were divided into seven groups (six groups of 8 animals and one group of 6 animals), each with similar average body weight, and fed experimental diets for 35 days. Food and water were provided at libitum. Food consumption was estimated during the last two weeks of treatment, for thee consecutive days during each week.
(§2) The basal composition was similar to that described earlier. All diets contained 25% casein and 0.1% cholesterol. Experimental diets contained TTP and/or principal flavonoids, hesperidin or naringenin, added at indicated levels at the expense of rice flour.

Series [2] relates to hamster model of experimental hypercholesterolemia. Put plainly: Serum lipids in hamster model of experimental hypercholesterolemia (casein, cholesterol-enriched diet). The format is in vivo, Golden Syrian hamsters. Conditions: hamsters; for HDL cholesterol (serum) / Total cholesterol (serum) / Total triacylglycerols (serum) / VLDL + LDL Cholesterol (serum) / VLDL + LDL/HDL cholesterol ratio: 35 days on diet; for HDL cholesterol (serum) / Total cholesterol (serum) / Total triacylglycerols (serum): supplement level as in label; for HDL cholesterol (serum) / Total cholesterol (serum) / VLDL + LDL Cholesterol (serum) / VLDL + LDL/HDL cholesterol ratio: mean; for Total triacylglycerols (serum): means ± SD; for VLDL + LDL Cholesterol (serum): difference between total and HDL cholesterol. The method, then:
Extracted flavonoids and a tocotrienol-rich preparation from palm oil, all provided by KGK Synergize Inc. London, Ontario, were tested in the hamster model of experimental hypercholesterolemia. The purpose of the study was to establish whether in this model, 2% supplementation of casein diet with palm tocotrienol preparation containing 70% of pure tocotrienols α-, γ- and δ-(TTP), or a similar 2% supplementation with flavonoids, hesperidin extrated from oranges and naringin extrated from grapefruit, could lower the elevated LDL cholesterol levels induced by casein. A further purpose of the study was to determine whether supplementation with 2% TTP in combination with 2% hesperidin or 2% naringin could result in synergistic cholesterol-lowering effects. Synergistic cholesterol-lowering responses have been observed for combinations of tocotrienols and citrus flavonoids in human liver cell line HepG2. The additional goal of this study was to establish whether in the same hamster model of hypercholesterolemia, 0.13% supplementation of casein diet with a mixture of polymethoxylated flavones from tangerines (PMF) could lower the elevated LDL cholesterol levels induced by casein. This experiment was based on previous tests In vitro using human liver cell line HepG2, in which principal flavonoids from PMF, tangeretin and nobiletin, had much greater cholesterol-lowering potential than hesperetin or naringenin.
In hamsters, feeding a semipurified, casein-based, cholesterol-enriched diet for the period of 5 weeks induces experimental hypercholesterolemia associated with elevation of LDL cholesterol, similar to that observed in humans.
as §1, §2
At the end of the study, the animals were fasted overnight and blood samples were taken by heart puncture. Total cholesterol in whole serum and in HDL fraction as well as total triacylglycerols were measured by enzymatic timed-endpoint methods, using the Beckman Coulter reagents (CHOL Reagent, HDLD HDL Reagent and TG Triglycerides GPO Reagent, respectively). All measurements were performed using SYNCHON LX System. VLDL+LDL cholesterol concentrations were calculated as a difference between total and HDL cholesterol. Results obtained were analyzed by one-way ANOVA followed by Dunnet's or Student-Newman-Keuls test for all groups and additionally by t-test for the PMF vs. the control group. Significant differences were reported at p<0.05.

Series [3] relates to 14C-acetate incorporation into cellular lipids in HepG2 cells. Kind of series: 14C-acetate incorporation into cellular lipids of HepG2 cells. The series is classed as cell-based, human. The following applies: HepG2, 24 h, 50 μg/ml (highest non-toxic concentration). The protocol: ^14C-acetate Incorporation: To determine whether exposure to flavonoids can also alter intracellular lipid metabolism, confluent HepG2 cells were incubated for 24 hours with the highest apo-B-reducing, non-toxic concentration of these flavonoids, in the presence of ^14C-acetate (0.5u Ci/ml medium). Radiolabelled lipids were then extracted from cells using heptane/isopropyl alcohol (3:2, v/v), and separated by thin layer chomatrography. A hexane/ethyl ether/acetic acid solvent (75:25:1, v/v) was used to separate cholesterol, cholesterol esters and triglycerides. Lipid fractions were scraped into scintillation vials and the radioactivity was measured using Beckman Scintillation Counter.
To determine whether exposure to limonin altered intracellular lipid metabolism, confluent HepG2 cells were incubated for 24 h with or without the highest non-cytotoxic concentration of limonin. During the last 5 h of the incubation, ^14C-acetate (0.5 μCi/mL) was added to the medium. The extraction and separation of cellular lipids was done described above.

In series [4] the test system is apo-B production in HepG2 cells. Put plainly: Apo-B content of medium of HepG2 cells by ELISA. The series is classed as cell-based, human. Conditions: for effect on apo-B levels/content / reduction of medium apo-B levels: HepG2, 24 h; for reduction of medium apo-B levels: 50 μg/mL, per mg cell protein, versus control. The protocol:
Cell Culture: Confluent HepG2 cells were preincubated in minimum essential medium (MEM) containing 1.0% bovine serum albumin (BSA) for 24 hours. This was followed by a second 24 hour incubation with or without various non-toxic concentrations of naringenin or hesperitin (7.5-60 ug/ml). At the end of the second 24 hour incubation, the apo-B content of the media was determined by enzyme-lined immunosorbent assay (ELISA) (Young et al., 1986, Clin. Chem. 32:1484-1490).
Protein Determination: The soluble cellular protein was extracted and measured using Pierce Coomassie Plus Protein Assay.
(§3) The limonoids, limonin and nomilin were examined for the cholesterol-lowering potential in HepG2 cells. Confluent HepG2 cells were preincubated for 24 h in a lipoprotein-free medium in which the fetal bovine serum was replaced by albumin to inhibit cell proliferation and to stimulate synthesis of cholesterol-containing lipoproteins. Cells were subsequently incubated for another 24 h in the same medium in the presence or absence of limonoids at the highest concentrations sustaining 100% cell viability, as determined by 3-(4,5-dimethylthiazol-2-yl)-2,5-diphenyltetrazolium bromide (MTT) viability assay. The limonoids were added to the cell culture medium after solubilization in dimethyl sulfoxide (DMSO). At the end of the incubation, culture media were collected and the concentration of the LDL structural protein, apo-B, was measured by Elisa by procedures already described in Section 6.0. Amount of lipoprotein-associated apo-B in the media (net apo-B secretion) was determined as described previously, calculated per mg cell protein and expressed as percent of control.
Apo-B productioon (the structural protein of LDL) was studied in HepG2 cells, using a 24. The effect of flavonoids on apo-B production after 24 h incubation of cells and measuring apo-B by Elisa as described above. All flavonoids, reduced the apo-B levels dose dependently.
Background: An ELISA detects its analyte on a solid surface through an enzyme-linked reagent.

The subject of series [5] is HepG2 cells. Kind of series: MTT viability assay, highest non-toxic concentration. The format is cell-based, human. Conditions: HepG2, 100% cell viability by MTT. The protocol: as §3
A general note: Tetrazolium assays rely on reduction of a dye to a coloured formazan, in cell work by metabolically active cells.

The subject of series [6] is casein-induced hypercholesterolemia. Put plainly: Serum lipoprotein cholesterol in rabbits fed cholesterol-free casein diet with citrus juice. The following applies: rabbits on casein diet, 3 weeks; hesperitin given as orange juice, naringenin as grapefruit juice (two times regular strength). The format is in vivo. An excerpt:
The effect of naringenin and hesperetin on casein-induced hypercholesterolemia was studied in rabbits. In each of the two experiments, rabbits were assigned to thee experimental groups. Each group was given semipurified, cholesterol-free casein diet and either water, orange juice or grapefruit juice to drink. The control group received water to drink and the experimental groups were given either orange juice or grapefruit juice (reconstituted concentrates made up to two times the regular strength). […] FIG. 1 depicts the design of the experiment.
Dextrose in the diets of the hesperitin (orange juice) and naringenin (grapefruit juice) groups was reduced to account for the sugar consumed via citrus juices. All other dietary components were left unchanged. (Table 1).
Serum Analysis: At the end of the study, VLDL, LDL and HDL fractions were separated by discontinuous density gradient ultracentrifugation. Total cholesterol in serum and in each lipoprotein fraction were measured using the Boehinger Manheim CHOL kit (Manheim, Germany).

[7] abbreviates: five weeks, versus control diet, 2% in diet (PMF 0.13%).
The mark [8] stands for this setting: Homo sapiens, HepG2, comparison of limonin and flavonoids, FIG. 5, read-out: IC50 apo-B content.

Take `C[C@@H]1O[C@@H](O[C@H]2[C@H](Oc3cc(O)c4c(c3)O[C@H](c3ccc(O)cc3)CC4=O)O[C@H](CO)[C@@H](O)[C@@H]2O)[C@H](O)[C@H](O)[C@H]1O` [naringin]: in series [1], the “Growth Rate” value amounted to 1.03 ± 0.26 g/day and the “Food Consumption” value worked out at 10.44 ± 2.36 g/day. Further, in series [2], the “HDL cholesterol (serum)” value worked out at 3.89 mM/L, the “Total cholesterol (serum)” value came to 6.56 mM/L, the “Total triacylglycerols (serum)” value was 3.58 ± 1.40 mM/L and the “VLDL + LDL Cholesterol (serum)” value is on record as 2.66 mM/L. For the same compound, the “VLDL + LDL/HDL cholesterol ratio” value in series [2] was 0.68. For the same compound, in series [2] (35 days, versus control diet), the “Percent change HDL cholesterol” value is on record as −11%, the “Percent change Total cholesterol” value is on record as −11% and the “Percent change VLDL + LDL Cholesterol” value is reported as −12%. In addition, in series [2] (setting [7]), the “reduction of serum HDL cholesterol” value is 11% and the “reduction of serum total cholesterol” value is on record as 11%.

With `CC1(C)O[C@H]2CC(=O)OC[C@]23[C@H]2CC[C@@]4(C)[C@H](c5ccoc5)OC(=O)[C@H]5O[C@]54[C@]2(C)C(=O)C[C@@H]13` [limonin], in series [3], the “effect on 14C-acetate incorporation into cellular cholesterol, cholesteryl esters and triacylglycerols” value is on record as “no effect”. Further, in series [4], the “effect on apo-B levels/content” value is “reduced the apo-B content in a dose-dependent manner” and the “reduction of medium apo-B levels” value came out at 74%. In addition, the “IC50 concentration times lower than for both flavonoids (hesperetin, naringenin)” value in series [4] (HepG2 apo-B) is 2-2.4 times. In series [4] (setting [8]), the IC50 (as a rule, the concentration that gives 50% inhibition) amounted to 20.5 µM. Further, the highest non-toxic concentration in series [5] turned out to be 50 µg/mL.

In the case of `CC(=O)O[C@H]1CC(=O)OC(C)(C)[C@@H]2CC(=O)[C@]3(C)[C@H](CC[C@@]4(C)[C@H](c5ccoc5)OC(=O)[C@H]5O[C@]543)[C@@]12C` [nomilin], in series [4], the “reduction of medium apo-B levels” value worked out at 40%.

Consider `COc1ccc([C@@H]2CC(=O)c3c(O)cc(O)cc3O2)cc1O` [hesperetin], for which the “reduction of LDL cholesterol levels compared with those given water” value in series [6] is given as 43%. In series [4], the “effect on apo-B levels/content” value is given as “reduced the apo-B content in a dose-dependent manner”. Besides, the “IC50 apo-B production” value in series [4] (HepG2, 24 h incubation, ELISA) worked out at 43.0 µg/mL (≈ 142 µM). Also, in series [4] (HepG2, comparison of limonin and flavonoids, FIG. 5, read-out: IC50 apo-B content), the IC50 is 43 µM.

Turning to `COc1ccc([C@@H]2CC(=O)c3c(O)cc(O[C@@H]4O[C@H](CO[C@@H]5O[C@@H](C)[C@H](O)[C@@H](O)[C@H]5O)[C@@H](O)[C@H](O)[C@H]4O)cc3O2)cc1O` [hesperidin], in series [1], the “Growth Rate” value is 0.98 ± 0.24 g/day and the “Food Consumption” value was found to be 13.15 ± 4.72 g/day. In series [2], the “HDL cholesterol (serum)” value was 4.07 mM/L, the “Total cholesterol (serum)” value came out at 6.73 mM/L, the “Total triacylglycerols (serum)” value stood at 2.64 ± 1.47 mM/L and the “VLDL + LDL Cholesterol (serum)” value is reported as 2.66 mM/L. Moreover, the “VLDL + LDL/HDL cholesterol ratio” value in series [2] was 0.66. For the same compound, in series [2] (35 days, versus control diet), the “Percent change HDL cholesterol” value is on record as −7%, the “Percent change Total cholesterol” value is recorded as −9%, the “Percent change Total triacylglycerols” value is reported as −36% and the “Percent change VLDL + LDL Cholesterol” value is −12%. Also, in series [2] (setting [7]), the “reduction of serum HDL cholesterol” value is recorded as 7% and the “reduction of serum total triacylglycerols” value is reported as 36%.

Consider `O=C1C[C@@H](c2ccc(O)cc2)Oc2cc(O)cc(O)c21` [naringenin], for which the “reduction of LDL cholesterol levels compared with those given water” value in series [6] worked out at 32%. For the same compound, in series [4], the “effect on apo-B levels/content” value is given as “reduced the apo-B content in a dose-dependent manner”. Besides, the IC50 in series [4] (Homo sapiens, HepG2, 24 h incubation, ELISA, read-out: IC50 apo-B production) was determined as 48.5 µg/mL; in series [4] (setting [8]), 48.5 µM.

Take `COc1ccc(-c2cc(=O)c3c(OC)c(OC)c(OC)c(OC)c3o2)cc1OC` [nobiletin]: the “IC50 apo-B production” value in series [4] (HepG2, 24 h incubation, ELISA) stood at 4.9 µg/mL (≈ 12.2 µM).

For the compound `COc1ccc(-c2cc(=O)c3c(OC)c(OC)c(OC)c(OC)c3o2)cc1` [tangeretin], in series [4] (HepG2, 24 h incubation, ELISA), the “IC50 apo-B production” value came out at 2.5 µg/mL (≈ 6.71 µM).
